Source: PubChem BioAssay (NCI)
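Exposure lasted 48 hours, with cells grown in 96-well plates and compounds tested at five concentrations. GI50: concentration for 50% inhibition of growth. TGI is the concentration that stops growth completely.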

Assays:
Experiment in all cases: DTP human tumour cell line panel, 48 h
SF-268 CNS = tested on: SF-268 CNS
SK-MEL-28 melanoma = tested on: SK-MEL-28 melanoma
SF-539 CNS = tested on: SF-539 CNS
PC-3 prostate = tested on: PC-3 prostate
SK-MEL-5 melanoma = tested on: SK-MEL-5 melanoma
HOP-62 NSCLC = tested on: HOP-62 NSCLC
SN12C renal = tested on: SN12C renal
NCI-H460 lung = tested on: NCI-H460 lung
SF-295 CNS = tested on: SF-295 CNS
TK-10 renal = tested on: TK-10 renal
COLO 205 colon = tested on: COLO 205 colon
OVCAR-4 ovarian = tested on: OVCAR-4 ovarian
SK-MEL-2 melanoma = tested on: SK-MEL-2 melanoma
RXF 393 renal = tested on: RXF 393 renal
MDA-MB-435 = tested on: MDA-MB-435
BT-549 breast = tested on: BT-549 breast
KM12 colon = tested on: KM12 colon
UACC-62 melanoma = tested on: UACC-62 melanoma
ACHN renal = tested on: ACHN renal
UO-31 renal = tested on: UO-31 renal
OVCAR-3 ovarian = tested on: OVCAR-3 ovarian
MALME-3M melanoma = tested on: MALME-3M melanoma
NCI-H522 lung = tested on: NCI-H522 lung
EKVX NSCLC = tested on: EKVX NSCLC
U251 CNS = tested on: U251 CNS
786-0 renal = tested on: 786-0 renal
HS 578T breast = tested on: HS 578T breast
OVCAR-5 ovarian = tested on: OVCAR-5 ovarian
IGROV1 ovarian = tested on: IGROV1 ovarian
OVCAR-8 ovarian = tested on: OVCAR-8 ovarian
T-47D breast = tested on: T-47D breast
HCT-116 colon = tested on: HCT-116 colon
M14 melanoma = tested on: M14 melanoma
HCT-15 colon = tested on: HCT-15 colon
HL-60(TB) leukemia = tested on: HL-60(TB) leukemia
NCI/ADR-RES ovarian = tested on: NCI/ADR-RES ovarian
NCI-H226 lung = tested on: NCI-H226 lung
HOP-92 NSCLC = tested on: HOP-92 NSCLC
A498 renal = tested on: A498 renal
NCI-H23 lung = tested on: NCI-H23 lung
MDA-MB-231 breast = tested on: MDA-MB-231 breast
CAKI-1 renal = tested on: CAKI-1 renal
RPMI-8226 leukemia = tested on: RPMI-8226 leukemia
K-562 leukemia = tested on: K-562 leukemia
UACC-257 melanoma = tested on: UACC-257 melanoma
HCC-2998 colon = tested on: HCC-2998 colon
A549 NSCLC = tested on: A549 NSCLC
MOLT-4 leukemia = tested on: MOLT-4 leukemia
HT29 colon = tested on: HT29 colon
MCF7 breast = tested on: MCF7 breast
SW-620 colon = tested on: SW-620 colon
DU-145 prostate = tested on: DU-145 prostate
LOX IMVI melanoma = tested on: LOX IMVI melanoma
CCRF-CEM leukemia = tested on: CCRF-CEM leukemia
SK-OV-3 ovarian = tested on: SK-OV-3 ovarian

C=CCC(N[C@@H](CO)c1ccccc1)c1cn(C(=O)OCC)c2ccccc12 (stereo not given in full)
GI50 (SF-268 CNS): 23 µM | TGI (SF-268 CNS): 54.5 µM | GI50 (SK-MEL-28 melanoma): 34.1 µM | TGI (SK-MEL-28 melanoma): > 100 µM | GI50 (SF-539 CNS): 20.6 µM | TGI (SF-539 CNS): 37.3 µM | GI50 (PC-3 prostate): 22.3 µM | TGI (PC-3 prostate): > 100 µM | GI50 (SK-MEL-5 melanoma): 14.2 µM | TGI (SK-MEL-5 melanoma): 28.9 µM | GI50 (HOP-62 NSCLC): 20.4 µM | TGI (HOP-62 NSCLC): 45.8 µM | GI50 (SN12C renal): 21.4 µM | TGI (SN12C renal): 39.2 µM | GI50 (NCI-H460 lung): 26.2 µM | TGI (NCI-H460 lung): 70.1 µM | GI50 (SF-295 CNS): 20.8 µM | TGI (SF-295 CNS): 53.9 µM | GI50 (TK-10 renal): 23.2 µM | TGI (TK-10 renal): 73.6 µM | GI50 (COLO 205 colon): 20.1 µM | TGI (COLO 205 colon): 44.1 µM | GI50 (OVCAR-4 ovarian): 81.5 µM | TGI (OVCAR-4 ovarian): > 100 µM | GI50 (SK-MEL-2 melanoma): 33.7 µM | TGI (SK-MEL-2 melanoma): > 100 µM | GI50 (RXF 393 renal): 22.8 µM | TGI (RXF 393 renal): 84.2 µM | GI50 (MDA-MB-435): 22.7 µM | TGI (MDA-MB-435): 55.9 µM | GI50 (BT-549 breast): 32.9 µM | TGI (BT-549 breast): > 100 µM | GI50 (KM12 colon): 15.2 µM | TGI (KM12 colon): 33.6 µM | GI50 (UACC-62 melanoma): 30.4 µM | TGI (UACC-62 melanoma): 98.4 µM | GI50 (ACHN renal): 24.3 µM | TGI (ACHN renal): 63 µM | GI50 (UO-31 renal): 32.3 µM | TGI (UO-31 renal): > 100 µM | GI50 (OVCAR-3 ovarian): 15.8 µM | TGI (OVCAR-3 ovarian): 31.7 µM | GI50 (MALME-3M melanoma): 17.1 µM | TGI (MALME-3M melanoma): 39.1 µM | GI50 (NCI-H522 lung): 21.9 µM | TGI (NCI-H522 lung): 46.8 µM | GI50 (EKVX NSCLC): 35.3 µM | TGI (EKVX NSCLC): > 100 µM | GI50 (U251 CNS): 17.9 µM | TGI (U251 CNS): 32.4 µM | GI50 (786-0 renal): 18 µM | TGI (786-0 renal): 36.7 µM | GI50 (HS 578T breast): 21 µM | TGI (HS 578T breast): 40.3 µM | GI50 (OVCAR-5 ovarian): 23.3 µM | TGI (OVCAR-5 ovarian): 66.1 µM | GI50 (IGROV1 ovarian): 23.1 µM | TGI (IGROV1 ovarian): > 100 µM | GI50 (OVCAR-8 ovarian): 31.7 µM | TGI (OVCAR-8 ovarian): > 100 µM | GI50 (T-47D breast): 25.8 µM | TGI (T-47D breast): > 100 µM | GI50 (HCT-116 colon): 15.5 µM | TGI (HCT-116 colon): 29.3 µM | GI50 (M14 melanoma): 18.1 µM | TGI (M14 melanoma): 34.4 µM | GI50 (HCT-15 colon): 18.9 µM | TGI (HCT-15 colon): 40.8 µM | GI50 (HL-60(TB) leukemia): 24.1 µM | TGI (HL-60(TB) leukemia): > 100 µM | GI50 (NCI/ADR-RES ovarian): 18.9 µM | TGI (NCI/ADR-RES ovarian): 55.5 µM | GI50 (NCI-H226 lung): 23.1 µM | TGI (NCI-H226 lung): 48.7 µM | GI50 (HOP-92 NSCLC): 16.5 µM | TGI (HOP-92 NSCLC): 39.8 µM | GI50 (A498 renal): 25.9 µM | TGI (A498 renal): 61.6 µM | GI50 (NCI-H23 lung): 20.5 µM | TGI (NCI-H23 lung): 49.6 µM | GI50 (MDA-MB-231 breast): 20.6 µM | TGI (MDA-MB-231 breast): 43.5 µM | GI50 (CAKI-1 renal): 13.6 µM | TGI (CAKI-1 renal): 53.5 µM | GI50 (RPMI-8226 leukemia): 17.9 µM | TGI (RPMI-8226 leukemia): 52.3 µM | GI50 (K-562 leukemia): 22.6 µM | TGI (K-562 leukemia): > 100 µM | GI50 (UACC-257 melanoma): 22.9 µM | TGI (UACC-257 melanoma): 66 µM | GI50 (HCC-2998 colon): 16.3 µM | TGI (HCC-2998 colon): 31.8 µM | GI50 (A549 NSCLC): 34.7 µM | TGI (A549 NSCLC): > 100 µM | GI50 (MOLT-4 leukemia): 15.5 µM | TGI (MOLT-4 leukemia): > 100 µM | GI50 (HT29 colon): 23.3 µM | TGI (HT29 colon): 62.7 µM | GI50 (MCF7 breast): 29.4 µM | TGI (MCF7 breast): > 100 µM | GI50 (SW-620 colon): 28.6 µM | TGI (SW-620 colon): > 100 µM | GI50 (DU-145 prostate): 27.6 µM | TGI (DU-145 prostate): 86 µM | GI50 (LOX IMVI melanoma): 16.7 µM | TGI (LOX IMVI melanoma): 32.2 µM | GI50 (CCRF-CEM leukemia): 19.2 µM | TGI (CCRF-CEM leukemia): 56.7 µM | GI50 (SK-OV-3 ovarian): 49.1 µM | TGI (SK-OV-3 ovarian): > 100 µM
